Assay [1] in a line: Antagonist activity at CRTH2 receptor in human whole blood assessed as inhibition of PGD2-induced eosinophil shape change pretreated for 20 mins measured after 1 hr by flow cytometric analysis. On the technique in general: A flow cytometer gives signals particle by particle.
Assay [2] in a line: Antagonist activity at CRTH2 receptor in human whole blood assessed as inhibition of PGD2-induced eosinophil chemotaxis.

The structures appear in SMILES notation.

One may read the IC50 as the concentration needed to halve the response being measured. As for `O=C(O)CN1C(=O)[C@@]2(NC(=O)N(Cc3cc(Cl)ccc3F)C2=O)c2cc(Cl)ccc21`, the IC50 turned out to be 69 nM in assay [1] and 7.4 nM in assay [2].
`CN1C(=O)N(Cc2csc(-c3ccccc3)n2)C(=O)C12C(=O)N(CC(=O)O)c1ccc(Cl)cc12` (stereo unspecified): in assay [1], the IC50 worked out at 3940 nM.
For `O=C(O)CN1C(=O)[C@@]2(CC(=O)N(Cc3cc(Cl)ccc3F)C2)c2cc(Cl)ccc21` [2-[(3S)-5-chloro-1'-[(5-chloro-2-fluorophenyl)methyl]-1,2-dihydrospiro[indole-3,3'-pyrrolidine]-2,5'-dione]acetic acid], the values for the IC50 in assay [1] and in assay [2] were 1800 nM and 62 nM, respectively.
For the compound `CN1C(=O)N(Cc2cc(Cl)ccc2F)C(=O)[C@]12C(=O)N(CC(=O)O)c1ccc(Cl)cc12`, the concentration for half-maximal inhibition (IC50) in assay [2] was 47 nM.
